In PubChem BioAssay (NCI):
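These data come from cells grown in 96-well plates and exposed to compound for 48 hours at five concentrations. At the GI50, growth is halved. TGI: concentration producing complete growth inhibition.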

The molecules below were run on LOX IMVI melanoma (assay: NCI anticancer screen, dose series, 48 h).
With COc1ccc2c3c1O[C@H]1C(OC)C=CC4C(C2)N(Cc2cccs2)CCC341 (stereo partly specified) the TGI was greater than 100 µM.
Nc1nc(SCCc2ccccc2)nc2nc3c(c(-c4ccccc4)c12)CCCC3 was tested, and the TGI was greater than 100 µM.
Molecule C=CCOC(=O)NC1C(OC(C)[C@@H](NC(=O)OCc2ccccc2)C(=O)OC(C)(C)C)OC(COC(C)=O)C(OC(C)=O)C1OC(C)=O (stereo partly specified) has a TGI greater than 100 µM.
In the case of O=c1[nH]nc(NNc2ccccc2)c2nnn(C3CCCCC3)c12, the TGI is reported as greater than 100 µM.
In the case of C=C1/C(=C\C=C2/CCC[C@]3(C)[C@@H]([C@H](C)CCCC(C)(C)O)CC[C@@H]23)C[C@@H](OC(=O)CBr)C[C@@H]1O, the GI50 is reported as 0.147 µM and the TGI is reported as 0.304 µM.
In the case of COc1ccc(-n2c(=O)[nH]n(C(C)=O)c2=O)cc1, the TGI is reported as greater than 100 µM.
O=C(c1ccc(Cl)cc1)N(C(=O)N1CCC(c2ccccc2)CC1)c1ccccc1 was tested, and the TGI was greater than 100 µM.

What follows are molecules tested on HOP-92 NSCLC (assay: NCI anticancer screen, dose series, 48 h).
Work on COc1ccc2c3c1O[C@H]1C(OC)C=CC4C(C2)N(Cc2cccs2)CCC341 (stereo partly specified) yielded a TGI greater than 100 µM.
C=CCOC(=O)NC1C(OC(C)[C@@H](NC(=O)OCc2ccccc2)C(=O)OC(C)(C)C)OC(COC(C)=O)C(OC(C)=O)C1OC(C)=O (stereo partly specified) gave a TGI greater than 100 µM.
Work on O=c1[nH]nc(NNc2ccccc2)c2nnn(C3CCCCC3)c12 yielded a TGI greater than 100 µM.
In the case of C=C1/C(=C\C=C2/CCC[C@]3(C)[C@@H]([C@H](C)CCCC(C)(C)O)CC[C@@H]23)C[C@@H](OC(=O)CBr)C[C@@H]1O, the GI50 is reported as 0.138 µM and the TGI is reported as 0.445 µM.
COc1ccc(-n2c(=O)[nH]n(C(C)=O)c2=O)cc1 was tested, and the TGI was greater than 100 µM.

What follows are molecules tested on BT-549 breast (assay: NCI anticancer screen, dose series, 48 h).
For COc1ccc2c3c1O[C@H]1C(OC)C=CC4C(C2)N(Cc2cccs2)CCC341 (stereo partly specified), the TGI was greater than 100 µM.
Nc1nc(SCCc2ccccc2)nc2nc3c(c(-c4ccccc4)c12)CCCC3 showed a TGI greater than 100 µM.
O=c1[nH]nc(NNc2ccccc2)c2nnn(C3CCCCC3)c12 was tested, and the TGI was greater than 100 µM.
C=C1/C(=C\C=C2/CCC[C@]3(C)[C@@H]([C@H](C)CCCC(C)(C)O)CC[C@@H]23)C[C@@H](OC(=O)CBr)C[C@@H]1O gave a GI50 of 1.96 µM and a TGI of 4.36 µM.
With O=C(c1ccc(Cl)cc1)N(C(=O)N1CCC(c2ccccc2)CC1)c1ccccc1 the TGI was 73.6 µM.

What follows are molecules tested on NCI-H226 lung (assay: NCI anticancer screen, dose series, 48 h).
C=CCOC(=O)NC1C(OC(C)[C@@H](NC(=O)OCc2ccccc2)C(=O)OC(C)(C)C)OC(COC(C)=O)C(OC(C)=O)C1OC(C)=O (stereo partly specified) showed a TGI greater than 100 µM.
Molecule C=C1/C(=C\C=C2/CCC[C@]3(C)[C@@H]([C@H](C)CCCC(C)(C)O)CC[C@@H]23)C[C@@H](OC(=O)CBr)C[C@@H]1O has a GI50 of 3.74 µM and a TGI of 22.1 µM.
COc1ccc(-n2c(=O)[nH]n(C(C)=O)c2=O)cc1 showed a TGI greater than 100 µM.
O=C(c1ccc(Cl)cc1)N(C(=O)N1CCC(c2ccccc2)CC1)c1ccccc1 showed a TGI of 99.7 µM.

These molecules were tested on 786-0 renal (assay: NCI anticancer screen, dose series, 48 h).
COc1ccc2c3c1O[C@H]1C(OC)C=CC4C(C2)N(Cc2cccs2)CCC341 (stereo partly specified) gave a TGI greater than 100 µM.
With C=CCOC(=O)NC1C(OC(C)[C@@H](NC(=O)OCc2ccccc2)C(=O)OC(C)(C)C)OC(COC(C)=O)C(OC(C)=O)C1OC(C)=O (stereo partly specified) the TGI was greater than 100 µM.
C=C1/C(=C\C=C2/CCC[C@]3(C)[C@@H]([C@H](C)CCCC(C)(C)O)CC[C@@H]23)C[C@@H](OC(=O)CBr)C[C@@H]1O showed a GI50 of 0.642 µM and a TGI of 1.89 µM.
Work on COc1ccc(-n2c(=O)[nH]n(C(C)=O)c2=O)cc1 yielded a TGI greater than 100 µM.
For O=C(c1ccc(Cl)cc1)N(C(=O)N1CCC(c2ccccc2)CC1)c1ccccc1, the TGI was greater than 100 µM.

The molecules below were run on RXF 393 renal (assay: NCI anticancer screen, dose series, 48 h).
Molecule Nc1nc(SCCc2ccccc2)nc2nc3c(c(-c4ccccc4)c12)CCCC3 has a TGI of 81.1 µM.
C=CCOC(=O)NC1C(OC(C)[C@@H](NC(=O)OCc2ccccc2)C(=O)OC(C)(C)C)OC(COC(C)=O)C(OC(C)=O)C1OC(C)=O (stereo partly specified) showed a TGI greater than 100 µM.
With C=C1/C(=C\C=C2/CCC[C@]3(C)[C@@H]([C@H](C)CCCC(C)(C)O)CC[C@@H]23)C[C@@H](OC(=O)CBr)C[C@@H]1O the GI50 was 2.6 µM and the TGI was 7.41 µM.
For COc1ccc(-n2c(=O)[nH]n(C(C)=O)c2=O)cc1, the TGI was greater than 100 µM.
O=C(c1ccc(Cl)cc1)N(C(=O)N1CCC(c2ccccc2)CC1)c1ccccc1 showed a TGI of 62.5 µM.

What follows are molecules tested on SR leukemia (assay: NCI anticancer screen, dose series, 48 h).
In the case of COc1ccc2c3c1O[C@H]1C(OC)C=CC4C(C2)N(Cc2cccs2)CCC341 (stereo partly specified), the TGI is reported as greater than 100 µM.
C=CCOC(=O)NC1C(OC(C)[C@@H](NC(=O)OCc2ccccc2)C(=O)OC(C)(C)C)OC(COC(C)=O)C(OC(C)=O)C1OC(C)=O (stereo partly specified) was tested, and the TGI was greater than 100 µM.
With O=c1[nH]nc(NNc2ccccc2)c2nnn(C3CCCCC3)c12 the TGI was greater than 100 µM.
C=C1/C(=C\C=C2/CCC[C@]3(C)[C@@H]([C@H](C)CCCC(C)(C)O)CC[C@@H]23)C[C@@H](OC(=O)CBr)C[C@@H]1O was tested, and the GI50 was 0.0902 µM and the TGI was 1.5 µM.
COc1ccc(-n2c(=O)[nH]n(C(C)=O)c2=O)cc1 showed a TGI greater than 100 µM.

What follows are molecules tested on OVCAR-8 ovarian (assay: NCI anticancer screen, dose series, 48 h).
With COc1ccc2c3c1O[C@H]1C(OC)C=CC4C(C2)N(Cc2cccs2)CCC341 (stereo partly specified) the TGI was greater than 100 µM.
Nc1nc(SCCc2ccccc2)nc2nc3c(c(-c4ccccc4)c12)CCCC3 showed a TGI greater than 100 µM.
C=CCOC(=O)NC1C(OC(C)[C@@H](NC(=O)OCc2ccccc2)C(=O)OC(C)(C)C)OC(COC(C)=O)C(OC(C)=O)C1OC(C)=O (stereo partly specified) showed a TGI greater than 100 µM.
O=c1[nH]nc(NNc2ccccc2)c2nnn(C3CCCCC3)c12 showed a TGI greater than 100 µM.
For C=C1/C(=C\C=C2/CCC[C@]3(C)[C@@H]([C@H](C)CCCC(C)(C)O)CC[C@@H]23)C[C@@H](OC(=O)CBr)C[C@@H]1O, the GI50 was 2.12 µM and the TGI was 30.5 µM.
With COc1ccc(-n2c(=O)[nH]n(C(C)=O)c2=O)cc1 the TGI was greater than 100 µM.
For O=C(c1ccc(Cl)cc1)N(C(=O)N1CCC(c2ccccc2)CC1)c1ccccc1, the TGI was greater than 100 µM.
